Laboratory results from patent US6106864A, “Pharmaceutical formulations containing darifenacin” (Pfizer Inc., priority 1995, dated 2000).

Tested on: muscarinic M3 receptors over M1 receptors
Assay: Selectivity for muscarinic M3 receptors over M1 receptors
Conditions: metabolite compared with darifenacin; "It appears"

less selective for muscarinic M3 receptors over M1 receptors in comparison with darifenacin: 6 fold
Compound: NC(=O)C(c1ccccc1)(c1ccccc1)[C@@H]1CCN(CCc2ccc3c(c2)C(O)CO3)C1 (stereo partly shown) [metabolite]
